Data on two compounds can be found in patent publication US11648315B2, “Silvestrol antibody-drug conjugates and methods of use” (Genentech, Inc., priority 2016, dated 2023).

What all share (format): cell-based
The test system of experiment [1] is BJAB. The experiment is described as follows: In vitro efficacy of free drug silvestrol compounds, BJAB. To be noted: Homo sapiens; BJAB cell line. The source says: (§1) The CellTiter-Glo® Luminescent Cell Viability Assay is a commercially available (Promega Corp., Madison, Wis.), homogeneous assay method based on the recombinant expression of Coleoptera luciferase (U.S. Pat. Nos. 5,583,024; 5,674,713; 5,700,670). This cell proliferation assay determines the number of viable cells in culture based on quantitation of the ATP present, an indicator of metabolically active cells (Crouch et al (1993) J. Immunol. Meth. 160:81-88; U.S. Pat. No. 6,602,677). The CellTiter-Glo® Assay was conducted in 96 well format, making it amenable to automated high-throughput screening (HTS) (Cree et al (1995) AntiCancer Drugs 6:398-404). The homogeneous assay procedure involves adding the single reagent (CellTiter-Glo® Reagent) directly to cells cultured in serum-supplemented medium. […]
(§2) Inhibition of cell proliferation in vitro may be assayed using the CellTiter-Glo™ Luminescent Cell Viability Assay, an embodiment of which is detailed as Example 6. Such assay determines the number of viable cells in culture based on quantitation of ATP present, which is an indication of metabolically active cells (Crouch et al. (1993) J. Immunol. Meth. 160:81-88; U.S. Pat. No. 6,602,677). […] Data can be recorded by luminometer or CCD camera imaging device. The luminescence output is expressed as relative light units (RLU).

Experiment [2] deals with MES-SA/Dx5. Briefly: In vitro efficacy of free drug silvestrol compounds, MES-SA/Dx5. To be noted: Homo sapiens; MES-SA/Dx5 cell line.
Source text: as §1, §2

For experiment [3], the system named is cell lines of Table 7. The experiment is described as follows: In vitro efficacy of free drug silvestrol compounds, summary over cell lines of Table 7. To be noted: summary of Table 7. The source says: The CellTiter-Glo® Luminescent Cell Viability Assay is a commercially available (Promega Corp., Madison, Wis.), homogeneous assay method based on the recombinant expression of Coleoptera luciferase (U.S. Pat. Nos. 5,583,024; 5,674,713; 5,700,670). This cell proliferation assay determines the number of viable cells in culture based on quantitation of the ATP present, an indicator of metabolically active cells (Crouch et al (1993) J. Immunol. Meth. 160:81-88; U.S. Pat. No. 6,602,677). The CellTiter-Glo® Assay was conducted in 96 well format, making it amenable to automated high-throughput screening (HTS) (Cree et al (1995) AntiCancer Drugs 6:398-404). The homogeneous assay procedure involves adding the single reagent (CellTiter-Glo® Reagent) directly to cells cultured in serum-supplemented medium. Cell washing, removal of medium and multiple pipetting steps are not required. The system detects as few as 15 cells/well in a 384-well format in 10 minutes after adding reagent and mixing. The cells may be treated continuously with ADC, or they may be treated and separated from ADC.
Inhibition of cell proliferation in vitro may be assayed using the CellTiter-Glo™ Luminescent Cell Viability Assay, an embodiment of which is detailed as Example 6. Such assay determines the number of viable cells in culture based on quantitation of ATP present, which is an indication of metabolically active cells (Crouch et al. (1993) J. Immunol. Meth. 160:81-88; U.S. Pat. No. 6,602,677). The assay may be conducted in 96- or 384-well format, making it amenable to automated high-throughput screening (HTS). See Cree et al. (1995) AntiCancer Drugs 6:398-404. The assay procedure involves adding a single reagent (CellTiter-Glo® Reagent) directly to cultured cells. […] The luminescent signal is proportional to the amount of ATP present, which is directly proportional to the number of viable cells present in culture. Data can be recorded by luminometer or CCD camera imaging device. The luminescence output is expressed as relative light units (RLU). […]

Experiment [4] relates to KPL-4 cells. Briefly: In vitro cell viability (CellTiter-Glo), KPL-4 cells. To be noted: Homo sapiens, KPL4; KPL-4 cell line; read-out: IC50 (nM) free drug. The procedure: (§3) Generally, the cytotoxic or cytostatic activity of an antibody-drug conjugate (ADC) is measured by: exposing mammalian cells having receptor proteins, e.g. HER2, to the antibody of the ADC in a cell culture medium; culturing the cells for a period from about 6 hours to about 5 days; and measuring cell viability. Cell-based in vitro assays were used to measure viability (proliferation), cytotoxicity, and induction of apoptosis (caspase activation) of the ADC of the invention.
(§4) The CellTiter-Glo® Luminescent Cell Viability Assay is a commercially available (Promega Corp., Madison, Wis.), homogeneous assay method based on the recombinant expression of Coleoptera luciferase (U.S. Pat. Nos. 5,583,024; 5,674,713; 5,700,670). This cell proliferation assay determines the number of viable cells in culture based on quantitation of the ATP present, an indicator of metabolically active cells (Crouch et al (1993) J. Immunol. Meth. 160:81-88; U.S. Pat. No. 6,602,677). […]
(§5) Inhibition of cell proliferation in vitro may be assayed using the CellTiter-Glo™ Luminescent Cell Viability Assay, an embodiment of which is detailed as Example 6. Such assay determines the number of viable cells in culture based on quantitation of ATP present, which is an indication of metabolically active cells (Crouch et al. (1993) J. Immunol. Meth. 160:81-88; U.S. Pat. No. 6,602,677). […]

Experiment [5] relates to HCC1937. The experiment is described as follows: In vitro efficacy of free drug silvestrol compounds, HCC1937. To be noted: Homo sapiens; HCC1937 cell line.
Source text: as §1, §2

Experiment [6] has as its system NCI-H1781. Briefly: In vitro efficacy of free drug silvestrol compounds, NCI-H1781. To be noted: NCI-H1781 cell line.
Source text: as §1, §2

For experiment [7], the system named is HCC1569 X2. The experiment is described as follows: In vitro efficacy of free drug silvestrol compounds, HCC1569 X2. To be noted: Homo sapiens; HCC1569 X2 cell line.
Source text: as §1
Inhibition of cell proliferation in vitro may be assayed using the CellTiter-Glo™ Luminescent Cell Viability Assay, an embodiment of which is detailed as Example 6. Such assay determines the number of viable cells in culture based on quantitation of ATP present, which is an indication of metabolically active cells (Crouch et al. (1993) J. Immunol. Meth. 160:81-88; U.S. Pat. No. 6,602,677). […] Data can be recorded by luminometer or CCD camera imaging device. The luminescence output is expressed as relative light units (RLU). […]

Experiment [8] deals with MES-SA. The experiment is described as follows: In vitro efficacy of free drug silvestrol compounds, MES-SA. To be noted: Homo sapiens; MES-SA cell line.
Source text: as §1, §2

Experiment [9] concerns T-47D. The experiment is described as follows: In vitro efficacy of free drug silvestrol compounds, T-47D. To be noted: Homo sapiens, T47D; T-47D cell line.
Source text: as §1, §2

Experiment [10] deals with SW 900. The experiment is described as follows: In vitro efficacy of free drug silvestrol compounds, SW 900. To be noted: Homo sapiens, SW900; SW 900 cell line.
Source text: as §1, §2

Experiment [11] relates to SK-BR-3 cells. The experiment is described as follows: In vitro cell viability (CellTiter-Glo), SK-BR-3 cells. To be noted: Homo sapiens, read-out: IC50 free drug. The procedure:
as §3, §4, §5
(In general: Cellular ATP, detected with luciferase, serves as a proxy for viable cell number.)

`COc1ccc([C@@]23Oc4cc(O[C@@H]5O[C@@H]([C@H](O)CO)CO[C@H]5OC)cc(OC)c4[C@]2(O)[C@H](O)[C@H](C(=O)NCCN)[C@H]3c2ccccc2)cc1` [silvestrol amine, (1R,2R,3S,3aR,8bS)-N-(2-aminoethyl)-6-(((2S,3R,6R)-6-((R)-1,2-dihydroxyethyl)-3-methoxy-1,4-dioxan-2-yl)oxy)-1,8b-dihydroxy-8-methoxy-3a-(4-methoxyphenyl)-3-phenyl-2,3,3a,8b-tetrahydro-1H-cyclopenta[b]benzofuran-2-carboxamide]: the IC50 in experiment [1], in experiment [2], in [4], in experiment [5], in experiment [6] and in [7] was greater than 200 nM in each case. In addition, the results for the IC50 in experiment [8], in experiment [9] and in experiment [10] were greater than 100 nM, greater than 200 nM and greater than 200 nM, respectively. Besides, in [3], the “activity of free drug in vitro” value is “inactive”.

For the compound `COC(=O)[C@H]1[C@@H](O)[C@@]2(O)c3c(OC)cc(O[C@@H]4O[C@@H](CCN)CO[C@H]4OC)cc3O[C@@]2(c2ccc(OC)cc2)[C@@H]1c1ccccc1` [amino silvestrol analog, (1R,2R,3S,3aR,8bS)-methyl 6-(((2S,3R,6S)-6-(2-aminoethyl)-3-methoxy-1,4-dioxan-2-yl)oxy)-1,8b-dihydroxy-8-methoxy-3a-(4-methoxyphenyl)-3-phenyl-2,3,3a,8b-tetrahydro-1H-cyclopenta[b]benzofuran-2-carboxylate], the IC50 (in general, the point on the concentration scale where inhibition reaches its midpoint) in experiment [1] was 0.81 nM; in experiment [2], greater than 100 nM; in experiment [4], 1.2 nM; in experiment [5], 0.66 nM; in [6], 1 nM; in experiment [7] it was 1.3 nM. Also, the IC50 in experiment [8] was 1.1 nM; in experiment [9], 1 nM; in experiment [11] it was 1.6 nM; in experiment [10], 2.9 nM. For the same compound, the “IC50s of free drug, in words” value in experiment [3] is reported as “pM or low nM”. Besides, the “activity of free drug in vitro” value in experiment [3] is “active”.
